Assay [1] addresses T1, Farnesyl-protein transferase (FTase) from bovine brain (Bos taurus, UniProt P29702+P49355).
T1 construct: Farnesyl-protein transferase (FTase) from bovine brain; from tissue; host or cells: bovine brain, partially purified (DEAE-Sephacel, N-octyl agarose, Mono Q HPLC)
Briefly: In vitro inhibition of Ras Farnesyl Transferase. In kind it is biochemical. The note with it: Ras-CVLS 3.5 μM, [3H]FPP 0.25 μM, partially purified bovine brain FTase; read-out: IC50 (concentration of compound which gives 50% inhibition of FTase). How it is done: In vitro inhibition of Ras Farnesyl Transferase […] Ras-CVLS at 3.5 μ[…], and the indicated compounds were incubated with this partially purified enzyme preparation. The FTase data presented below is a measurement of the ability of the test compound to inhibit Ras farnesylation in vitro. | *(IC50 is the concentration of compound which gives 50% inhibition o | FTase under the described assay conditions)

The test system of assay [2] is Ras farnesylation in the v-ras cell line (Ha-ras p21). Briefly: In vivo ras farnesylation assay (v-ras cell line). In kind it is cell-based. How it is done: In vivo ras farnesylation assay
The cell line used in this assay was the v-ras line, which expressed vital Ha-ras p21. The assay was performed essentially as described in DeClue, J. E. et. al., Cancer Reasearch 51, 712-717, (1991). Cells in 10 cm dishes at 50-75% confluency were treated with the test compound (final concentration of solvent, methanol or dimethyl sulfoxide, was 0.1%). After 4 hours at 37° C., the cells were labelled in 3 ml methionine-free DMEM supplemeted with 10% regular DMEM, 2% fetal bovine serum and 400 μCi[^35 S] methionine (1000 Ci/mmol). After an additional 20 hours, the cells were lysed in 1 ml lysis buffer (1% NP40/20 nnM HEPES, pH 7.5/5 mM MgCl2 /1 mM DTT/10 μg/ml aprotinen/2 μg/ml leupeptin/2 μg/ml antipain/0.5 mM PMSF) and the lysates cleared by centrifugation at 100,000×g for 45 min. Aliqouts of lysates containing equal numbers of acid-precipitable counts were brought to 1 ml with IP buffer (lysis buffer lacking DTT) and immunoprecipitated with the ras-specific monoclonal antibody Y13-259 (Furth, M. E. et al., J. Virol. 43, 294-304, (1982)). Following a 2 hour antibody incubation at 4° C., 200 μl of a 25% suspension of protein A-Sepharose coated with rabbit anti rat IgG was added for 45 min. […]

The test system of the next assay is Ras farnesylation. The conditions noted are these: literature; cited from earlier work.

`CC[C@H](C)[C@H](NC[C@@H](N)CS)C(=O)N[C@H](C(=O)N[C@@H](CCCO)C(=O)O)[C@@H](C)CC`: the IC50 in assay [1] was 0.024 µM.

In assay [2] (at 100 μM test concentration, 4 hours then additional 20 hours with [35S]methionine), `CC[C@H](C)[C@H](NC[C@@H](NC[C@@H](N)CS)[C@@H](C)CC)C(=O)N[C@H]1CCOC1=O` [N-[2(S)-(2(R)-amino-3-mercaptopropylamino)-3(S)-methylpentyl]isoleucyl-homoserine lactone] registered an inhibition at 100 µM of 90%. In assay [1], the IC50 amounted to 0.95 µM.

Turning to `CC[C@H](C)[C@H](NC[C@@H](NC[C@@H](N)CS)[C@@H](C)CC)C(=O)N[C@@H](CCO)C(=O)O` [N-[2(S)-(2(R)-amino-3-mercaptopropylamino)-3(S)-methylpentyl]isoleucyl-homoserine], the “Inhibition of Ras farnesylation” value in assay [2] (result in words, test concentration not printed for this compound) was “No Inhibition”. Further, the IC50 in assay [1] came out at 0.012 µM.

On to `CC[C@H](C)[C@H](NC[C@@H](N)CS)C(=O)N[C@H](C(=O)N[C@H]1CCCOC1=O)[C@@H](C)CC` [N-[N'-(2(R)-amino-3-mercaptopropyl)isoleucyl-isoleucyl]-3(S)-aminotetrahydropyran-2-one], for which the IC50 in assay [1] was 0.47 µM.

Turning to `CC[C@H](C)C(=O)O[C@H]1CCC=C2C=C[C@H](C)[C@H](CC[C@@H]3C[C@@H](O)CC(=O)O3)[C@H]21` [compactin], the “Inhibition of Ras farnesylation in vivo” value in the assay on Ras farnesylation was “Inhibition of Ras farnesylation in vivo has been demonstrated”.

In the case of `CC[C@H](C)C(=O)O[C@H]1C[C@@H](C)C=C2C=C[C@H](C)[C@H](CC[C@@H]3C[C@@H](O)CC(=O)O3)[C@H]21` [lovastatin], in the assay on Ras farnesylation, the “Inhibition of Ras farnesylation in vivo” value is listed as “Inhibition of Ras farnesylation in vivo has been demonstrated”.

A word on the inhibition: it is the drop in the measured response relative to a control, in per cent. The low end stands for a weak effect, the high end for a strong effect.

Values taken from patent US5480893A, “Inhibitors of farnesyl protein transferase” (Merck & Co., Inc., priority 1994, dated 1996).
